Columns and labels:
TNF-alpha = assay: Urinary and plasma TNF-alpha in diabetes; type: in vivo, rats
Protocol: (§1) Rats were administered ATL146e (10 ng/kg/min) or vehicle by osmotic minipumps prior to the induction of diabetes by STZ (50 mg/kg, iv) and followed for up to 6 week. Table 1, below illustrates the effect of STZ on blood glucose, body weight, systolic blood pressure and 24 hours of urine volume as well as the effect of ATL146e. Urinary TNF-alpha was not different between groups before STZ treatment. […] Results are illustrated in FIG. 3.

[1] = system: STZ (45 mg/kg) Diabetic Model; assay: Blood glucose, body weight, systolic blood pressure and urine volume in STZ diabetic model; type: in vivo, rats; conditions: for 24 h Urine Volume / Body Weight / Systolic Blood Pressure: Diabetes + ATL146e (10 ng/kg/min); for 24 h Urine Volume / Body Weight / Systolic Blood Pressure / Blood Glucose: STZ rats; for Blood Glucose: Diabetes + ATL146e (10 ng/kg/min, osmotic minipump)
Protocol: Effects of ATL146e on Blood Glucose, Body Weight, Systolic Blood Pressure and Urine Volume in STZ (45 mg/kg) Diabetic Model (n=5 Each Group) Rats were administered ATL146e (10 ng/kg/min) or vehicle by osmotic minipumps prior to the induction of diabetes by STZ […] and followed for up to 6 week. Table 1, below illustrates the effect of STZ on blood glucose, body weight, systolic blood pressure and 24 hours of urine volume as well as the effect of ATL146e. Table 1 summarizes the data for blood glucose (BG), body weight (BW), systolic blood pressure (SBP) and 24 hour urinary volume (UV). Basal BG level was 74±4 mg/dl and increased to 325±4 mg/dl 48 hours after STZ-induction of diabetes and continued to be elevated at 3 and 6 weeks of the study period. Normal rats gained weight as expected. […] There were no significant changes in SBP, 3 weeks after STZ-induction of diabetes between all groups.

[2] = system: STZ-induced diabetic animal model; assay: Urinary albumin excretion in diabetes; type: in vivo; conditions: STZ diabetic rats, 24 hour urine, FIG. 1, in words
Protocol: Rats were administered ATL146e (10 ng/kg/min) or vehicle by osmotic minipumps prior to the induction of diabetes by STZ (50 mg/kg, iv) and followed for up to 6 week. Table 1, below illustrates the effect of STZ on blood glucose, body weight, systolic blood pressure and 24 hours of urine volume as well as the effect of ATL146e. Urine collections were obtained for 24 hours for measurement of urinary albumin excretion (UAE). UAE rate was 135±35 μg/24 hours at baseline and increased to 1265±500 μg/24 hours and 2921±335 μg/24 hours (P<0.0001) at week 2 and 6, respectively in the diabetic group. […] Results are illustrated in FIG. 1.

diabetic rats = assay: Plasma creatinine in diabetes; type: in vivo; conditions: diabetic rats versus vehicle, FIG. 2, in words
Protocol: as §1, with “ATL146e.” for “ATL146e. Urinary TNF-alpha was not different between groups before STZ treatment.”, “2.” for “3.”

[3] = system: Nitric Oxide End Products (Nitrite and Nitrate) (NOX); assay: Urinary nitric oxide end products (nitrite and nitrate) (NOX) in diabetes; type: in vivo; conditions: diabetic rats, 6 week after STZ induction, FIG. 4, in words
Protocol: as §1, with “As shown to the right, NOX (as an indicator of endothelial function in the kidney)” for “Urinary TNF-alpha”, “decreased in diabetes group at 6 week after” for “not different between groups before”, “induction of diabetes. The decreased in NOX was improved by ATL146e.” for “treatment.”, “4.” for “3.”

fibronectin mRNA = assay: Fibronectin mRNA (polymerase chain reaction) after induction of diabetes; type: in vivo; conditions: RNA from diabetic rats, PCR, FIG. 5, in words
Protocol: RNA from diabetic rats were extracted and subjected to polymerase chain reaction to examine profibrogenic factors. […] Trichrome stain of kidneys from diabetic rats treated with vehicle for 6 weeks (Panels a, c) or ATL146e-10 ng/kg/min (Panels b, d). Magnification ×400. Each panel represents a photograph from a different test animal. Results are illustrated in FIG. 5.

Which results are given for `CCNC(=O)C1OC(n2cnc3c(N)nc(C#CCC4CCC(C(=O)OC)CC4)nc32)C(O)C1O` (stereo not drawn) [ATL146e, 4-{3-[6-Amino-9-(5-ethylcarbamoyl-3,4-dihydroxytetrahydro-furan-2-yl)-9H-purin-2-yl]-prop-2-ynyl}cyclo-hexanecarboxylic acid methyl ester]?
Plasma TNF-alpha (TNF-alpha; all groups, any point of the study periods (data not shown)): not detectable; Effect on the increase in TNF-alpha (printed: Plasma TNF-alpha) (TNF-alpha; diabetic rats, 6 week after diabetes, FIG. 3, in words): significantly (P<0.05) reduced the increase in Plasma TNF-alpha; 24 h Urine Volume ([1]; Baseline): 15 ± 2 mL; Body Weight ([1]; Baseline): 250 ± 13 g; 24 h Urine Volume ([1]; Week 2): 53 ± 13 mL; Body Weight ([1]; Week 3): 323 ± 13 g; Systolic Blood Pressure ([1]; Week 3): 123 ± 4 mmHg; 24 h Urine Volume ([1]; Week 4): 57 ± 15 mL; 24 h Urine Volume ([1]; Week 6): 59 ± 23 mL; Body Weight ([1]; Week 6): 358 ± 24 g; Systolic Blood Pressure ([1]; Week 6): 114 ± 2 mmHg; Blood Glucose ([1]; Baseline): 75 ± 5 mg/dL; Blood Glucose ([1]; Week 1): 311 ± 37 mg/dL; Blood Glucose ([1]; Week 6): 359 ± 23 mg/dL; Effect on the increase in SBP observed in diabetes with no treatment ([1]; STZ diabetic rats, after 6 weeks, in words): restored the increase in SBP; 24 hour urinary volume (UV) ([1]; diabetes+ATL146e group after STZ-induction, throughout study period, in words): increased significantly; Increase in BW ([1]; diabetes+ATL146e rats versus normal rats of matched age, in words): modest and significant from normal rats; Effect on urinary albumin excretion (UAE) [2]: minimizes the increase of UAE; Effect on the increase in plasma creatinine (diabetic rats): significantly restored to normal; Effect on decreased urinary NOX [3]: restored to normal levels; Effect on the increase in fibronectin mRNA induced by diabetes (fibronectin mRNA): reduced to levels near control
